In one series the test system is hTERT. As to the kind of experiment: Secreted alkaline phosphatase (SEAP) assay, PhTERT-SEAP (H1299). It is filed as cell-based. As to conditions: Homo sapiens, 24 hours; for activity at 1 µM: NCI-H1299, Conc. 1 μM, read-out: Relative SEAP activity (%); for activity at 10 µM: NCI-H1299, Conc. 10 μM; for activity at 10 µM / activity at 100 µM: read-out: Relative SEAP activity (%) (converted); for activity at 100 µM: NCI-H1299, Conc. 100 μM. On the procedure:
H1299 were grown in RPMI 1640 media supplemented with 10% fetal bovine serum, 100 units/mL penicillin and […] streptomycin in a humidified atmosphere with 5% CO2 at 37° C. Culture media were changed every three days. To establish stable cell lines that the expression of hTERT could be monitored by a reporter system, a about 3.3 kbp DNA fragment ranging from −3338 to +1 bp of the hTERT gene (hTERT promoter, PhTERT) was subcloned upstream to a secreted alkaline phosphatase gene (SEAP) and transfected into H1299 by electroporation. The stable clones were selected using G418. The stable clones derived from H1299 were cultured using conditions that are similar to their parental cells.
Secreted alkaline phosphatase was used as the reporter system to monitor the transcriptional activity of hTERT. Here, about 10^4 cells each were grown in 96-well plates and incubated at 37° C. for 24 hours and changed with fresh media. Varying amounts of drugs were added and cells were incubated for another 24 hours. Culture media were collected and heated at 65° C. for 10 min to inactivate heat-labile phosphatases. An equal amount of SEAP buffer (2 M diethanolamine, 1 mM MgCl2, and 20 mM L-homoarginine) was added to the media and p-nitrophenyl phosphate was added to a final concentration of 12 mM. Absorptions at 405 nm were taken, and the rate of absorption increase is determined (the increasing rate of absorbance at 405 nm was used to represent the activity of SEAP).

Series [1] can be described thus: MTT assay, PhTERT-SEAP (H1299). Type of series: cell-based, human. As to conditions: human, H1299 cells carrying the PhTERT-SEAP reporter, PhTERT-SEAP (H1299); for viability at 1 μM: Conc. 1 μM, read-out: Relative MTT viability (%); for viability at 10 μM: Conc. 10 μM; for viability at 10 μM / viability at 100 μM: read-out: Relative MTT viability (%) (converted); for viability at 100 μM: Conc. 100 μM. The protocol: Further, cells were subjected to MTT assay to compare the relative toxicity or effect of each compound on cell proliferation and activity.
The above-described cells are cultured in a 96-well plate, to which was added with 25 μl MTT solution, and cultured in a 37° C. carbon dioxide incubator for 4 hours. Then, 100 μl Lysis buffer is added and incubated in a 37° C. carbon dioxide incubator overnight. An ELISA reader (Bio-Rad Model 450) is used to read optical density (O.D.) at 550 nm.

For `Nc1ccc2c(c1N)C(=O)c1ccccc1C2=O` [1,2-diaminoanthraquinone, reference compound], in the series on hTERT, the activity at 1 µM amounted to 98.5 ± 11.7%, the activity at 10 µM is 77.3% and the activity at 100 µM was 18.2%.

`O=C(CCCl)Nc1ccc2c(c1NC(=O)CCCl)C(=O)c1ccccc1C2=O` [CC-02, 1,2-bis-(3-chloropropionamido)-anthraquinone] displayed a melting point of 179 to 180 °C. For the same compound, in series [1], the viability at 1 μM came out at 101 ± 4.37%, the viability at 10 μM was 83.8% and the viability at 100 μM was 5.38%. In the series with hTERT, the activity at 1 µM worked out at 96.3 ± 3.31%, the activity at 10 µM is 94.7% and the activity at 100 µM was 16%.

Regarding `O=C(CCCCl)Nc1ccc2c(c1NC(=O)CCCCl)C(=O)c1ccccc1C2=O` [CC-03, 1,2-bis-(4-chlorobutyramido)-anthraquinone], the melting point is 154 to 155 °C. Besides, in series [1], the viability at 1 μM was 103 ± 7.01%, the viability at 10 μM was 79.9% and the viability at 100 μM was 19%. Also, in the series on hTERT, the activity at 1 µM was determined as 114 ± 6.14%, the activity at 10 µM was 92.9% and the activity at 100 µM is 15.2%.

Compound `Nc1c(NC(=O)CCl)ccc2c1C(=O)c1ccccc1C2=O` [CC-05, 1-(amino)-2-(chloroacetamido)-anthraquinone] registered a melting point of 193 to 194 °C. Moreover, the viability at 1 μM in series [1] was 64.3 ± 8.97%. For the same compound, in the series on hTERT, the activity at 1 µM stood at 42 ± 4.16%, the activity at 10 µM was 6.73 ± 0.83% and the activity at 100 µM was 3.23 ± 1.22%.

`O=C(CCl)Nc1ccc2c(c1NC(=O)CCCl)C(=O)c1ccccc1C2=O` [CC-07, 1-[(3-chloropropanyl)amido]-2-(chloroacetamido)-anthraquinone] had a melting point of 182 to 183 °C. Also, in series [1], the viability at 1 μM stood at 103 ± 7.01%, the viability at 10 μM is 79.9% and the viability at 100 μM was 19%. In the series on hTERT, the activity at 1 µM is 114 ± 6.14%, the activity at 10 µM is 92.9% and the activity at 100 µM was 15.2%.

Compound `O=C(CCl)Nc1ccc2c(c1NC(=O)CCCCl)C(=O)c1ccccc1C2=O` [CC-08, 1-[(4-chlorobutanyl)amido]-2-(chloroacetamido)-anthraquinone] had a melting point of 163 to 164 °C. Further, in series [1], the viability at 1 μM was 100 ± 4.4%, the viability at 10 μM was 117% and the viability at 100 μM is 62%. Besides, in the series with hTERT, the activity at 1 µM was 108 ± 9.03%, the activity at 10 µM was 97.1% and the activity at 100 µM was 30.9%.

Consider `O=C(CCl)Nc1ccc2c(c1NC(=O)c1ccccc1)C(=O)c1ccccc1C2=O` [CC-09, 1-(benzamido)-2-(chloroacetamido)-anthraquinone], for which the melting point was 203 to 204 °C. In series [1], the viability at 1 μM turned out to be 101 ± 4.37%, the viability at 10 μM was 83.8% and the viability at 100 μM is 5.38%. Besides, in the series with hTERT, the activity at 1 µM is 96.3 ± 3.31%, the activity at 10 µM is 94.7% and the activity at 100 µM is 16%.

`Cc1ccccc1C(=O)Nc1c(NC(=O)CCl)ccc2c1C(=O)c1ccccc1C2=O` [CC-10, 1-(2-methylbenzamido)-2-(chloroacetamido)-anthraquinone]: the melting point was 179 to 180 °C. For the same compound, the viability at 1 μM in series [1] was 73.8 ± 7.94%. In addition, in the series with hTERT, the activity at 1 µM was 98.6 ± 7.92%, the activity at 10 µM was -3.13% and the activity at 100 µM was -5.69%.

Take `Cc1cccc(C(=O)Nc2c(NC(=O)CCl)ccc3c2C(=O)c2ccccc2C3=O)c1` [CC-11, 1-(3-methylbenzamido)-2-(chloroacetamido)-anthraquinone]: the melting point was 202 to 203 °C. In series [1], the viability at 1 μM was 72.8 ± 3.83% and the viability at 10 μM is 0.7%. For the same compound, in the series on hTERT, the activity at 1 µM is 116 ± 14.8%, the activity at 10 µM was -1.91% and the activity at 100 µM is -3.1%.

For `O=C(CCl)Nc1ccc2c(c1NC(=O)c1ccccc1F)C(=O)c1ccccc1C2=O` [CC-13, 1-(2-fluorobenzamido)-2-(chloroacetamido)-anthraquinone], the melting point is 245 to 246 °C. In series [1], the viability at 1 μM worked out at 78.8 ± 7.83% and the viability at 10 μM was 2.77%. Besides, in the series on hTERT, the activity at 1 µM is 105 ± 12.7%, the activity at 10 µM is 5.89% and the activity at 100 µM was 2.11%.

Regarding `O=C(CCl)Nc1ccc2c(c1NC(=O)c1ccccc1Cl)C(=O)c1ccccc1C2=O` [CC-16, 1-(2-chlorobenzamido)-2-(chloroacetamido)-anthraquinone], the melting point lay in the range of 193 to 194 °C. In addition, in series [1], the viability at 1 μM was 102 ± 4.26% and the viability at 10 μM is 6.63%. In addition, in the series on hTERT, the activity at 1 µM came out at 81.6 ± 48.2%, the activity at 10 µM is 5.35% and the activity at 100 µM was 1.23%.

The compound `O=C(CCl)Nc1ccc2c(c1NC(=O)c1cccc(Cl)c1)C(=O)c1ccccc1C2=O` [CC-17, 1-(3-chlorobenzamido)-2-(chloroacetamido)-anthraquinone] had a melting point of 188 to 189 °C. Also, in series [1], the viability at 1 μM amounted to 89.7 ± 2.74% and the viability at 10 μM was 5.08%. In the series with hTERT, the activity at 1 µM amounted to 80.9 ± 3.9%, the activity at 10 µM is 6.65% and the activity at 100 µM was 3.51%.

In turn, `O=C(CCl)Nc1ccc2c(c1NC(=O)c1ccc(Cl)cc1)C(=O)c1ccccc1C2=O` [CC-18, 1-(4-chlorobenzamido)-2-(chloroacetamido)-anthraquinone] came in with a melting point of 224 to 225 °C. Further, in series [1], the viability at 1 μM is 92.4 ± 7.16%, the viability at 10 μM was 5.17% and the viability at 100 μM was 4.25%. Besides, in the series on hTERT, the activity at 1 µM came out at 98.7 ± 5.6%, the activity at 10 µM is 6.26% and the activity at 100 µM is 4.95%.

Compound `O=C(CCl)Nc1ccc2c(c1NC(=O)c1ccccc1C(F)(F)F)C(=O)c1ccccc1C2=O` [CC-19, 1-[2-(trifluoromethyl)benzamido]-2-(chloroacetamido)-anthraquinone] registered a melting point of 248 to 250 °C. In series [1], the viability at 1 μM was 93.2 ± 2.95% and the viability at 10 μM is 3.42%. Further, in the series on hTERT, the activity at 1 µM came to 93.5 ± 6.11%, the activity at 10 µM was 4.89% and the activity at 100 µM is 2.4%.

In the case of `O=C(CCl)Nc1ccc2c(c1NC(=O)c1cccc(C(F)(F)F)c1)C(=O)c1ccccc1C2=O` [CC-20, 1-[3-(trifluoromethyl)benzamido]-2-(chloroacetamido)-anthraquinone], the melting point lay in the range of 190 to 191 °C. Moreover, in series [1], the viability at 1 μM was 94.7 ± 3.59%, the viability at 10 μM was 5.15% and the viability at 100 μM was 3.37%. Also, in the series with hTERT, the activity at 1 µM stood at 99.8 ± 4.15%, the activity at 10 µM was 4.53% and the activity at 100 µM was 0.32%.

`O=C(CCl)Nc1ccc2c(c1NC(=O)c1ccc(C(F)(F)F)cc1)C(=O)c1ccccc1C2=O` [CC-21, 1-[4-(trifluoromethyl)benzamido]-2-(chloroacetamido)-anthraquinone] returned a melting point of 203 to 204 °C. Further, in series [1], the viability at 1 μM was determined as 86.3 ± 2.6% and the viability at 10 μM is 6.58%. Moreover, in the series on hTERT, the activity at 1 µM turned out to be 85.9 ± 8%, the activity at 10 µM was 8.61 ± 0.0611% and the activity at 100 µM is 6.49%.

For `O=C(CCl)Nc1ccc2c(c1NC(=O)c1cc(C(F)(F)F)ccc1C(F)(F)F)C(=O)c1ccccc1C2=O` [CC-22, 1-1-[2,5-bis-(trifluoromethyl)benzamido]-2-(chloroacetamido)-anthraquinone], the melting point fell in the range of 187 to 188 °C. In series [1], the viability at 1 μM worked out at 86.7 ± 2.13% and the viability at 10 μM was 8.81%. Also, in the series with hTERT, the activity at 1 µM was determined as 90.3 ± 1.77%, the activity at 10 µM is 5.11% and the activity at 100 µM was 4.11%.

Regarding `O=C(CCl)Nc1ccc2c(c1NC(=O)c1cccs1)C(=O)c1ccccc1C2=O` [CC-28, 1-[(2-thiophenecarbonyl)amino]-2-(chloroacetamido)-anthraquinone], the melting point lay in the range of 190 to 191 °C. In the series on hTERT, the activity at 1 µM was 5.81 ± 23.3%, the activity at 10 µM is 3.03% and the activity at 100 µM is 2.2%.

For `O=C1c2c(O)ccc(O)c2C(=O)c2c(NCCNCCO)ccc(NCCNCCO)c21` [mitoxantrone, reference compound], in the series on hTERT, the activity at 1 µM stood at 20.8 ± 1.56%, the activity at 10 µM was 9.92% and the activity at 100 µM was 7.19%.

The term melting point denotes the temperature, or range, at which the solid turns liquid. By viability is commonly meant a read-out of living cells in per cent, often relative to untreated cells.

The values above are taken from patent US8530465B2, “1, 2-disubstituted amido-anthraquinone derivatives, preparation method and application thereof” (National Defense Medical Center, priority 2010, dated 2013).
